The values below come from ChEMBL document CHEMBL2375355, “Practical synthesis of a chromene analog for use as a retinoic acid receptor alpha antagonist lead compound” (Eur J Med Chem, 2013).

Structures are written as SMILES. Activity calls are given as the source filed them. The calls are words filed in the database; no cut-off is given here.

Holding throughout (assay type): cell-based
Assay [1] concerns the target T1, Retinoic acid receptor alpha (Homo sapiens) (UniProt P10276).
T1 sequence (whole entry): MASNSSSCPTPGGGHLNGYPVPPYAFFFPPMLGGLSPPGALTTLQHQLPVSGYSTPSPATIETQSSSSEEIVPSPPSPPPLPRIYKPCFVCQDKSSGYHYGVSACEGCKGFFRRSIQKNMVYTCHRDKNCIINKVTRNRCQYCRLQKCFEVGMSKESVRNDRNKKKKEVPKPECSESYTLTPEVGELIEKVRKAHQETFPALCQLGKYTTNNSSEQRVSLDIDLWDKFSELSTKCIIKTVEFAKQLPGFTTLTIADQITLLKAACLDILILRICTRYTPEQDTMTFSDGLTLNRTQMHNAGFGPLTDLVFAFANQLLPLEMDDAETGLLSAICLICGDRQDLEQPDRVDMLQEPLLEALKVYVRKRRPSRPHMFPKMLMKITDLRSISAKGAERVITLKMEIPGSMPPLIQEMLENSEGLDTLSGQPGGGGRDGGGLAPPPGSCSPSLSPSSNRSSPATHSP
Put plainly: Antagonist activity at RARalpha in human MCF7 cells assessed as inhibition of ATRA-induced luciferase activity at 10 nM after 48 hrs by luciferase reporter gene assay.

Assay [2] has as its target T1, Retinoic acid receptor alpha (Homo sapiens). Briefly: Antagonist activity at RARalpha in human MCF7 cells assessed as inhibition of ATRA-induced luciferase activity after 48 hrs by luciferase reporter gene assay. In general terms: In a reporter assay the amount or activity of a reporter protein is the signal.
For assay [3] the target is unchanged. Briefly: Antagonist activity at RARalpha in human MCF7 cells assessed as inhibition of ATRA-induced luciferase activity at 0.1 to 1 nM after 48 hrs by luciferase reporter gene assay.

Regarding `Cc1ccc(C2=CC(C)(C)Oc3c(Br)cc(C(=O)Nc4ccc(C(=O)O)cc4)cc32)cc1`, the inhibition entry in assay [1] was “Active”. For the same compound, the inhibition entry in assay [2] is “Dose-dependent effect”.
Consider `Cc1ccc(C2=CC(C)(C)Oc3c(Br)cc(C(=O)Nc4ccc(C(=O)O)c(F)c4)cc32)cc1`, for which, in assay [3], the inhibition entry is “Active”.
